# Assay results: patent US20240382483A1, “HETEROCYCLIC EGFR INHIBITORS FOR USE IN THE TREATMENT OF CANCER” (Blueprint Medicines Corporation, priority 2021, published 2024)
# What was measured:
# EGFR (L858R T790M C797S) = biological target: T1, EGFR (L858R T790M C797S) (Homo sapiens, UniProt P00533, C797S/L858R/T790M); test: Biochemical EGFR inhibition assay (Caliper mobility shift), EGFR LRTMCS; details: LRTMCS (PH) IC50 (nM) @ 1 mM ATP (Num), EGFR LRTMCS mutant
# T1 construct: purchased SignalChem E10-122VG
# T1 sequence (P00533 25-1210 T790M/C797S/L858R): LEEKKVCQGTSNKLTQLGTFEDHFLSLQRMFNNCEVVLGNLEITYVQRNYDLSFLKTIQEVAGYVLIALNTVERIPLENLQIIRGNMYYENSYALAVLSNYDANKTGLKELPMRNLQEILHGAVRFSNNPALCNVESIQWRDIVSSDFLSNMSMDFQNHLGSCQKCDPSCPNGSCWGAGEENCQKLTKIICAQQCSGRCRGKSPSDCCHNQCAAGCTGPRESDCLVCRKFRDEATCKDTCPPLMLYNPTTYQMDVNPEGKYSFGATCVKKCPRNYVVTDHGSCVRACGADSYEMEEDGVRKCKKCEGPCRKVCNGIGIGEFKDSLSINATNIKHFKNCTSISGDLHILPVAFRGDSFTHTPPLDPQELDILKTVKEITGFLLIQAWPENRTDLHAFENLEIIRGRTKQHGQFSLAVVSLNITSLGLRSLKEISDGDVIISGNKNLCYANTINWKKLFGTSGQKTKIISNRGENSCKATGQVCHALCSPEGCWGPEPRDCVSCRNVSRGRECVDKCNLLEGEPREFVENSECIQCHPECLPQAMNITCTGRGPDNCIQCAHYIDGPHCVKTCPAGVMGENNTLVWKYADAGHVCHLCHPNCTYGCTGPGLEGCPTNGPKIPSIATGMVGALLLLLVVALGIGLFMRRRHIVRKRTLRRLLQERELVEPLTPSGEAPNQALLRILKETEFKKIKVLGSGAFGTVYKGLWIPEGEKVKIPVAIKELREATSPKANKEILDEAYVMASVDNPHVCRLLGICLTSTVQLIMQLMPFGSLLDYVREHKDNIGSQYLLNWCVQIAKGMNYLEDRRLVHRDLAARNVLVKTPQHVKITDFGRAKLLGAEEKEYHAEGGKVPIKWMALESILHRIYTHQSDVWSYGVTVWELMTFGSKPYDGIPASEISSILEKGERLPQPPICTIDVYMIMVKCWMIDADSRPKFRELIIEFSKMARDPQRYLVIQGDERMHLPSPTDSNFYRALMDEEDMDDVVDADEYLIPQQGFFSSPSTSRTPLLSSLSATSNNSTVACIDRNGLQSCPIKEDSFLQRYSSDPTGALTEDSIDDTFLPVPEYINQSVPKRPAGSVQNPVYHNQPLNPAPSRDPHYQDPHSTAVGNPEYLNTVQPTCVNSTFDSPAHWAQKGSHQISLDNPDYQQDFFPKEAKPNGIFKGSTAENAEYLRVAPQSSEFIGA
# Experimental: Reactions proceeded until between 10% to 20% total peptides were phosphorylated at room temperature (25° C.) and were terminated with 35 mM 2,2′,2″,2′″-(ethane-1,2-diyldinitrilo)tetraacetic acid (EDTA). Product was detected using the Caliper mobility shift detection method where the phosphorylated peptide (product) and substrate were electrophoretically separated and measured. Percent activity was plotted against log concentration of compound and points to generate an apparent IC50.
# [1] = biological target: T2, intracellular phosphorylation of EGFR in NCI-H1975 cell line that harbors the EGFR L858R T790M mutations (Homo sapiens, UniProt P00533, L858R/T790M); test: NCI-H1975 pEGFR AlphaLISA assay; format: cell-based; details: NCI-H1975 cells (EGFR L858R T790M), p-EGFR (Tyr1068), 4-5 hours incubation; read-out: Ext pEGFR H1975 GMean IC50 (nM) Protocol: @Pharmaron AlphaLISA (Num)
# T2 construct: NCI-H1975 cell line that harbors the EGFR L858R T790M mutations (ATCC, CRL-5908); host or cells: NCI-H1975
# T2 sequence (P00533 25-1210 T790M/L858R): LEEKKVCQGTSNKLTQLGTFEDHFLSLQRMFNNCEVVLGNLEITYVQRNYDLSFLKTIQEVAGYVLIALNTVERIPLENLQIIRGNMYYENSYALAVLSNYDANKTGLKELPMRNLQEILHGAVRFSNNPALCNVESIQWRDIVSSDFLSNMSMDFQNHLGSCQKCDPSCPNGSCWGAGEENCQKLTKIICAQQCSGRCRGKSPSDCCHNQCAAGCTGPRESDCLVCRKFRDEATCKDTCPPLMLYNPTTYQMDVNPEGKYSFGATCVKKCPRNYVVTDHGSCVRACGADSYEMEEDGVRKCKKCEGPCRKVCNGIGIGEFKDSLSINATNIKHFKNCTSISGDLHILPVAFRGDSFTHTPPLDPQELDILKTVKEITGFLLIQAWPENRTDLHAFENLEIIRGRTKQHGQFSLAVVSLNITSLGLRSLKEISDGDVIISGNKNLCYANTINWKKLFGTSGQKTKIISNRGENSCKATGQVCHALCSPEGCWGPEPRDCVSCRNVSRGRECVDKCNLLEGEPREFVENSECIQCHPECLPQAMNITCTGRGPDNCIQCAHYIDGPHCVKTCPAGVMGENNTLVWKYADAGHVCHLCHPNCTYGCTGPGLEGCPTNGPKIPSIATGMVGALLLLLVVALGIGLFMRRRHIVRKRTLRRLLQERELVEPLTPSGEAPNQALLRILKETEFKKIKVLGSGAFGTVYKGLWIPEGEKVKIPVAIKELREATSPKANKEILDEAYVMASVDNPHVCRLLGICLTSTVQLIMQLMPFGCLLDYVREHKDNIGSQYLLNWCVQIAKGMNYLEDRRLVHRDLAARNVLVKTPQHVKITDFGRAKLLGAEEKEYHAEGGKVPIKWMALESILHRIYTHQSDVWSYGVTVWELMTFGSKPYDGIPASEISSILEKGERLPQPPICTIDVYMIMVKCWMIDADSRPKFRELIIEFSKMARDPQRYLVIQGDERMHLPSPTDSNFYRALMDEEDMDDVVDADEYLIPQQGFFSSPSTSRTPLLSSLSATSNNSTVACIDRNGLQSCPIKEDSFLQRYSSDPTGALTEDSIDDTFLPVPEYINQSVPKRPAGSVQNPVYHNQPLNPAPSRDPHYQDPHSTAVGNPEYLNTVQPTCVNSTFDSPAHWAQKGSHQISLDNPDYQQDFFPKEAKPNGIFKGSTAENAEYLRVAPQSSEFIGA
# Experimental: On the next day, the test compounds and DMSO control were added into H1975 cell plate followed by incubation at 37C/5% CO2 for 4-5 hours. […] Then 5 μL of a donor bead mix was added to each well followed by overnight incubation at room temperature in dark. On the next day, the plate was read at a compatible plate reader to obtain pEGFR signal. Percent of pEGFR inhibition was plotted against log concentration of compounds to generate IC50 values.
IC50 (EGFR (L858R T790M C797S)),IC50 [1],Compound
< 15 nM,10 to 20 nM,"CC(C)c1cnc(N2CCC23CCN(C)CC3)c2cnc(Nc3ccnc(N4CC[C@@H](O)[C@@](C)(F)C4)n3)cc12 [Example 196, (3S,4R)-3-fluoro-1-(4-((5-isopropyl-8-(7-methyl-1,7-diazaspiro[3.5]nonan-1-yl)-2,7-naphthyridin-3-yl)amino)pyrimidin-2-yl)-3-methylpiperidin-4-ol]"
< 15 nM,30 to 50 nM,"CNC[C@@H]1CCN1c1ncc(C(C)C)c2cc(Nc3ccnc(N4CC[C@H](OC)[C@H](F)C4)n3)ncc12 [Example 164, N-(2-((3R,4S)-3-fluoro-4-methoxypiperidin-1-yl)pyrimidin-4-yl)-5-isopropyl-8-((S)-2-((methylamino)methyl)azetidin-1-yl)-2,7-naphthyridin-3-amine]"
< 15 nM,30 to 50 nM,"C[C@@H]1CCN1c1ncc([C@@H]2CCOC2)c2cc(Nc3ccnc(N4CC[C@@H](O)[C@@H](F)C4)n3)ncc12 (single isomer, unassigned) [Example 162, (3S,4R)-3-fluoro-1-(4-((8-((R)-2-methylazetidin-1-yl)-5-((S)-tetrahydrofuran-3-yl)-2,7-naphthyridin-3-yl)amino)pyrimidin-2-yl)piperidin-4-ol or (3S,4R)-3-fluoro-1-(4-((8-((R)-2-methylazetidin-1-yl)-5-((R)-tetrahydrofuran-3-yl)-2,7-naphthyridin-3-yl)amino)pyrimidin-2-yl)piperidin-4-ol]"
< 15 nM,< 10 nM,"CC(C)c1ccc(N2CC3(CCS3(=O)=O)C2)c2cnc(Nc3ccnc(N4CC[C@@H](O)[C@@](C)(F)C4)n3)cc12 [Example 35, 6-(3-((2-((3S,4R)-3-fluoro-4-hydroxy-3-methylpiperidin-1-yl)pyrimidin-4-yl)amino)-5-isopropylisoquinolin-8-yl)-1-thia-6-azaspiro[3.3]heptane 1,1-dioxide]"
< 15 nM,< 10 nM,"COC[C@@H]1CCN1c1ncc(C(C)C)c2cc(Nc3ccnc(N4CC[C@@H](O)[C@@](C)(F)C4)n3)ncc12 [Example 29, (3S,4R)-3-fluoro-1-(4-((5-isopropyl-8-((S)-2-(methoxymethyl)azetidin-1-yl)-2,7-naphthyridin-3-yl)amino)pyrimidin-2-yl)-3-methylpiperidin-4-ol]"
15 to 20 nM,20 to 30 nM,"COC[C@@H](C)c1cnc(N2CC[C@H]2C)c2cnc(Nc3ccnc(N4CC[C@@H](O)[C@@](C)(F)C4)n3)cc12 (single isomer, unassigned) [Example 216, (3S,4R)-3-fluoro-1-(4-((5-((S)-1-methoxypropan-2-yl)-8-((R)-2-methylazetidin-1-yl)-2,7-naphthyridin-3-yl)amino)pyrimidin-2-yl)-3-methylpiperidin-4-ol or (3S,4R)-3-fluoro-1-(4-((5-((R)-1-methoxypropan-2-yl)-8-((R)-2-methylazetidin-1-yl)-2,7-naphthyridin-3-yl)amino)pyrimidin-2-yl)-3-methylpiperidin-4-ol]"
< 15 nM,10 to 20 nM,"CO[C@H]1CN(c2ncc([C@@H](C)CO)c3cc(Nc4ccnc(N5CC[C@@H](O)[C@@](C)(F)C5)n4)ncc23)[C@@H]1C (single isomer, unassigned) [Example 212, (3S,4R)-3-fluoro-1-(4-((5-((R)-1-hydroxypropan-2-yl)-8-((2R,3S)-3-methoxy-2-methylazetidin-1-yl)-2,7-naphthyridin-3-yl)amino)pyrimidin-2-yl)-3-methylpiperidin-4-ol or (3S,4R)-3-fluoro-1-(4-((5-((S)-1-hydroxypropan-2-yl)-8-((2R,3S)-3-methoxy-2-methylazetidin-1-yl)-2,7-naphthyridin-3-yl)amino)pyrimidin-2-yl)-3-methylpiperidin-4-ol]"
20 to 30 nM,> 50 nM,"CC(C)c1cnc(N2CC(n3ccnc3)C2)c2cnc(Nc3ccnc(N4CC[C@@H](O)[C@@](C)(F)C4)n3)cc12 [Example 219, (3S,4R)-1-(4-((8-(3-(1H-imidazol-1-yl)azetidin-1-yl)-5-isopropyl-2,7-naphthyridin-3-yl)amino)pyrimidin-2-yl)-3-fluoro-3-methylpiperidin-4-ol]"
15 to 20 nM,> 50 nM,"CC(C)c1cnc(-c2cnn(C(F)F)c2)c2cnc(Nc3ccnc(N4CC[C@@H](O)[C@@](C)(F)C4)n3)cc12 [Example 16, (3S,4R)-1-(4-((8-(1-(difluoromethyl)-1H-pyrazol-4-yl)-5-isopropyl-2,7-naphthyridin-3-yl)amino)pyrimidin-2-yl)-3-fluoro-3-methylpiperidin-4-ol]"
< 15 nM,20 to 30 nM,"C[C@H](CO)c1cnc(N2CC[C@H]2C)c2cnc(Nc3ccnc(N4C[C@@H](F)[C@@H](O)C(C)(C)C4)n3)cc12 (single isomer, unassigned) [Example 188]"
20 to 30 nM,30 to 50 nM,"CC(C)c1cnc(N2CC(CC(=O)N(C)C)C2)c2cnc(Nc3ccnc(N4CC[C@@H](O)[C@@](C)(F)C4)n3)cc12 [Example 86, 2-(1-(6-((2-((3S,4R)-3-fluoro-4-hydroxy-3-methylpiperidin-1-yl)pyrimidin-4-yl)amino)-4-isopropyl-2,7-naphthyridin-1-yl)azetidin-3-yl)-N,N-dimethylacetamide]"
< 15 nM,30 to 50 nM,"COCCN1CC2(CCN2c2ncc(C(C)C)c3cc(Nc4ccnc(N5CC[C@@H](O)[C@@](C)(F)C5)n4)ncc23)C1 [Example 64, (3S,4R)-3-fluoro-1-(4-((5-isopropyl-8-(6-(2-methoxyethyl)-1,6-diazaspiro[3.3]heptan-1-yl)-2,7-naphthyridin-3-yl)amino)pyrimidin-2-yl)-3-methylpiperidin-4-ol]"
30 to 100 nM,30 to 50 nM,"CC(C)c1cnc(N2CC3(CCN(C)C3=O)C2)c2cnc(Nc3ccnc(N4CC[C@@H](O)[C@@](C)(F)C4)n3)cc12 [Example 99, 2-(6-((2-((3S,4R)-3-fluoro-4-hydroxy-3-methylpiperidin-1-yl)pyrimidin-4-yl)amino)-4-isopropyl-2,7-naphthyridin-1-yl)-6-methyl-2,6-diazaspiro[3.4]octan-5-one]"
< 15 nM,30 to 50 nM,"COC[C@@H](C)c1cnc(N2CC[C@H]2C)c2cnc(Nc3ccnc(N4CC[C@@H](O)[C@@](C)(F)C4)n3)cc12 (single isomer, unassigned) [Example 215, (3S,4R)-3-fluoro-1-(4-((5-((S)-1-methoxypropan-2-yl)-8-((R)-2-methylazetidin-1-yl)-2,7-naphthyridin-3-yl)amino)pyrimidin-2-yl)-3-methylpiperidin-4-ol or (3S,4R)-3-fluoro-1-(4-((5-((R)-1-methoxypropan-2-yl)-8-((R)-2-methylazetidin-1-yl)-2,7-naphthyridin-3-yl)amino)pyrimidin-2-yl)-3-methylpiperidin-4-ol]"
< 15 nM,< 10 nM,"CC(C)c1cnc(N2CC[C@@H](S(C)(=O)=O)C2)c2cnc(Nc3ccnc(N4CC[C@@H](O)[C@@](C)(F)C4)n3)cc12 [Example 74, (3S,4R)-3-fluoro-1-(4-((5-isopropyl-8-((R)-3-(methylsulfonyl)pyrrolidin-1-yl)-2,7-naphthyridin-3-yl)amino)pyrimidin-2-yl)-3-methylpiperidin-4-ol]"
20 to 30 nM,30 to 50 nM,"CO[C@@H]1CCN(c2nccc(Nc3cc4c(C(C)C)cnc(N5CC(C(=O)N(C)C)C5)c4cn3)n2)C[C@@H]1O (single isomer, unassigned) [Example 120, 1-(6-((2-((3S,4R)-3-hydroxy-4-methoxypiperidin-1-yl)pyrimidin-4-yl)amino)-4-isopropyl-2,7-naphthyridin-1-yl)-N,N-dimethylazetidine-3-carboxamide or 1-(6-((2-((3R,4S)-3-hydroxy-4-methoxypiperidin-1-yl)pyrimidin-4-yl)amino)-4-isopropyl-2,7-naphthyridin-1-yl)-N,N-dimethylazetidine-3-carboxamide]"
< 15 nM,10 to 20 nM,"CC(C)c1cnc(N2CC3(C2)CC3(F)F)c2cnc(Nc3ccnc(N4CC[C@@H](O)[C@@](C)(F)C4)n3)cc12 [Example 59, (3S,4R)-1-(4-((8-(1,1-difluoro-5-azaspiro[2.3]hexan-5-yl)-5-isopropyl-2,7-naphthyridin-3-yl)amino)pyrimidin-2-yl)-3-fluoro-3-methylpiperidin-4-ol]"
< 15 nM,20 to 30 nM,"CC(C)c1cnc(N2CC[C@H]2[C@@H](C)O)c2cnc(Nc3ccnc(N4CC[C@@H](O)[C@@](C)(F)C4)n3)cc12 (single isomer, unassigned) [Example 65, (3S,4R)-3-fluoro-1-(4-((8-((S)-2-((R)-1-hydroxyethyl)azetidin-1-yl)-5-isopropyl-2,7-naphthyridin-3-yl)amino)pyrimidin-2-yl)-3-methylpiperidin-4-ol or (3S,4R)-3-fluoro-1-(4-((8-((S)-2-((S)-1-hydroxyethyl)azetidin-1-yl)-5-isopropyl-2,7-naphthyridin-3-yl)amino)pyrimidin-2-yl)-3-methylpiperidin-4-ol]"
